From patent US20140128385A1 (NOVARTIS AG, priority 2011, published 2014)
Structures can show the parent of a compound that is named as a salt.

biological target: T1, BACE-2 (Homo sapiens, UniProt Q9Y5Z0); test: assay for inhibition of BACE-2; format: biochemical
T1 construct: Recombinant BACE-2 (extracellular domain, expressed in baculovirus and purified using standard methods); made in house
T1 sequence (Q9Y5Z0 63-473 limits assumed): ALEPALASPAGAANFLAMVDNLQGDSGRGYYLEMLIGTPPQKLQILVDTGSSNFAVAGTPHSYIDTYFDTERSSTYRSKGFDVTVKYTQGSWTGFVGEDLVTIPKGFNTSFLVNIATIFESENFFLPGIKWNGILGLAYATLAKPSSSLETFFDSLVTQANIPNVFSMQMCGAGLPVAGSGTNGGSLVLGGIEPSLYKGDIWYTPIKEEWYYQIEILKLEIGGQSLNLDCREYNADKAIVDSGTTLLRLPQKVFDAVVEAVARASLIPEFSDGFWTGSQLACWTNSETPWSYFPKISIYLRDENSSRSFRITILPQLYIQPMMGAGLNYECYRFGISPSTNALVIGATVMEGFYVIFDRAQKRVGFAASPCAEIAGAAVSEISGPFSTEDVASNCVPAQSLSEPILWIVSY

SMILES | IC50 [nM]
CN1CC(C)(c2cc(NC(=O)c3ccc(Br)cn3)ccc2F)N=C(N)C1=O (stereo not drawn) [Example 189, 5-Bromo-pyridine-2-carboxylic acid [3-(6-amino-2,4-dimethyl-5-oxo-2,3,4,5-tetrahydro-pyrazin-2-yl)-4-fluoro-phenyl]-amide hydrochloride] | 49
CN1CC(C)(c2cc(NC(=O)c3ccc(Cl)cn3)ccc2F)N=C(N)C1=O (stereo not drawn) [Example 190, 5-Chloro-pyridine-2-carboxylic acid [3-(6-amino-2,4-dimethyl-5-oxo-2,3,4,5-tetrahydro-pyrazin-2-yl)-4-fluoro-phenyl]-amide hydrochloride] | 35
CN1CC(C)(c2cc(NC(=O)c3ncc(Cl)cc3Cl)ccc2F)N=C(N)C1=O (stereo not drawn) [Example 192, 3,5-Dichloro-pyridine-2-carboxylic acid [3-(6-amino-2,4-dimethyl-5-oxo-2,3,4,5-tetrahydro-pyrazin-2-yl)-4-fluoro-phenyl]-amide hydrochloride] | 13
COCCN1CC(C)(c2cc(NC(=O)c3ccc(Br)cn3)ccc2F)N=C(N)C1=O (stereo not drawn) [Example 196, 5-Bromo-pyridine-2-carboxylic acid {3-[6-amino-4-(2-methoxy-ethyl)-2-methyl-5-oxo-2,3,4,5-tetrahydro-pyrazin-2-yl]-4-fluoro-phenyl}-amide hydrochloride] | 17
Cn1cc(N2CC(C)(c3cc(NC(=O)c4ccc(Br)cn4)ccc3F)N=C(N)C2=O)cn1 (stereo not drawn) [Example 197, 5-Bromo-pyridine-2-carboxylic acid {3-[6-amino-2-methyl-4-(1-methyl-1H-pyrazol-4-yl)-5-oxo-2,3,4,5-tetrahydro-pyrazin-2-yl]-4-fluoro-phenyl}-amide hydrochloride] | 18
CC1(c2cc(NC(=O)c3ccc(Br)cn3)ccc2F)CN(c2cccnc2)C(=O)C(N)=N1 (stereo not drawn) [Example 198, 5-Bromo-pyridine-2-carboxylic acid [3-(6-amino-2-methyl-5-oxo-4-pyridin-3-yl-2,3,4,5-tetrahydro-pyrazin-2-yl)-4-fluoro-phenyl]-amide hydrochloride] | 9
NC1=NC(c2cc(NC(=O)c3ccc(Br)cn3)ccc2F)(C(F)F)CNC1 (stereo not drawn) [Example 201, 5-Bromo-pyridine-2-carboxylic acid [3-(6-amino-2-difluoromethyl-2,3,4,5-tetrahydro-pyrazin-2-yl)-4-fluoro-phenyl]-amide] | 24
N#Cc1ccc(C(=O)Nc2ccc(F)c(C3(C(F)F)CNC(=O)C(N)=N3)c2)nc1 (stereo not drawn) [Example 203, 5-Cyano-pyridine-2-carboxylic acid [3-(6-amino-2-difluoromethyl-5-oxo-2,3,4,5-tetrahydro-pyrazin-2-yl)-4-fluoro-phenyl]-amide] | 7
COC(=O)N1CC(N)=NC(c2cc(NC(=O)c3ccc(Br)cn3)ccc2F)(C(F)F)C1 (stereo not drawn) [Example 204, 5-Amino-3-{5-[(5-bromo-pyridine-2-carbonyl)-amino]-2-fluoro-phenyl}-3-difluoromethyl-3,6-dihydro-2H-pyrazine-1-carboxylic acid methyl ester] | 10
COC(=O)N1CC(N)=NC(c2cc(NC(=O)c3ccc(C#N)cn3)ccc2F)(C(F)F)C1 (stereo not drawn) [Example 205, 5-Amino-3-{5-[(5-cyano-pyridine-2-carbonyl)-amino]-2-fluoro-phenyl}-3-difluoromethyl-3,6-dihydro-2H-pyrazine-1-carboxylic acid methyl ester] | 104
CC(=O)N1CC(N)=NC(c2cc(NC(=O)c3ncc(Br)cc3C)ccc2F)(C(F)F)C1 (stereo not drawn) [Example 206, 5-Bromo-3-methyl-pyridine-2-carboxylic acid [3-(4-acetyl-6-amino-2-difluoromethyl-2,3,4,5-tetrahydro-pyrazin-2-yl)-4-fluoro-phenyl]-amide] | 4
Cc1cc(Br)cnc1C(=O)Nc1ccc(F)c(C2(C(F)F)CN(C(=O)C3CC3)CC(N)=N2)c1 (stereo not drawn) [Example 209, 5-Bromo-3-methyl-pyridine-2-carboxylic acid [3-(6-amino-4-cyclopropanecarbonyl-2-difluoromethyl-2,3,4,5-tetrahydro-pyrazin-2-yl)-4-fluoro-phenyl]-amide] | 6
Cc1cc(Br)cnc1C(=O)Nc1ccc(F)c(C2(C(F)F)CNCC(N)=N2)c1 (stereo not drawn) [Example 210, 5-Bromo-3-methyl-pyridine-2-carboxylic acid [3-(6-amino-2-difluoromethyl-2,3,4,5-tetrahydro-pyrazin-2-yl)-4-fluoro-phenyl]-amide] | 23
CC(=O)N1CC(N)=NC(c2cc(NC(=O)c3ncc(OC(F)F)cc3C)ccc2F)(C(F)F)C1 (stereo not drawn) [Example 211, 5-Difluoromethoxy-3-methyl-pyridine-2-carboxylic acid [3-(4-acetyl-6-amino-2-difluoromethyl-2,3,4,5-tetrahydro-pyrazin-2-yl)-4-fluoro-phenyl]-amide] | 89
COCc1cc(Cl)cnc1C(=O)Nc1ccc(F)c([C@]2(C(F)F)COCC(N)=N2)c1 [Example 215, 5-Chloro-3-methoxymethyl-pyridine-2-carboxylic acid [3-((R)-5-amino-3-difluoromethyl-3,6-dihydro-2H-[1,4]oxazin-3-yl)-4-fluoro-phenyl]-amide] | 11
[2H]C([2H])([2H])Oc1cnc(C(=O)Nc2ccc(F)c([C@]3(C(F)F)COCC(N)=N3)c2)c(N)n1 [Example 217] | 153
C#CCOc1cnc(C(=O)Nc2ccc(F)c([C@]3(C(F)F)COCC(N)=N3)c2)c(N)n1 [Example 218] | 125
NC1=N[C@@](c2cc(NC(=O)c3ccc4c(Cl)c[nH]c4n3)ccc2F)(C(F)F)COC1 [Example 219] | 117
Cc1cc(C(F)F)cnc1C(=O)Nc1ccc(F)c([C@]2(C(F)F)COCC(N)=N2)c1 [Example 222] | 52

Next, values leading:

IC50 [nM] | SMILES
798 | CN1CC(N)=NC(C)(c2cccc(NC(=O)c3ccc(Br)cn3)c2)C1=O (stereo not drawn) [Example 188, 5-Bromo-pyridine-2-carboxylic acid [3-(6-amino-2,4-dimethyl-3-oxo-2,3,4,5-tetrahydro-pyrazin-2-yl)-phenyl]-amide]
30 | CCN1CC(C)(c2cc(NC(=O)c3ccc(Br)cn3)ccc2F)N=C(N)C1=O (stereo not drawn) [Example 191, 5-Bromo-pyridine-2-carboxylic acid [3-(6-amino-4-ethyl-2-methyl-5-oxo-2,3,4,5-tetrahydro-pyrazin-2-yl)-4-fluoro-phenyl]-amide hydrochloride]
8 | CCN1CC(C)(c2cc(NC(=O)c3ncc(Cl)cc3Cl)ccc2F)N=C(N)C1=O (stereo not drawn) [Example 193, 3,5-Dichloro-pyridine-2-carboxylic acid [3-(6-amino-4-ethyl-2-methyl-5-oxo-2,3,4,5-tetrahydro-pyrazin-2-yl)-4-fluoro-phenyl]-amide hydrochloride]
47 | CC(C)N1CC(C)(c2cc(NC(=O)c3ccc(Br)cn3)ccc2F)N=C(N)C1=O (stereo not drawn) [Example 194, 5-Bromo-pyridine-2-carboxylic acid [3-(6-amino-4-isopropyl-2-methyl-5-oxo-2,3,4,5-tetrahydro-pyrazin-2-yl)-4-fluoro-phenyl]-amide hydrochloride]
6 | COCCN1CC(C)(c2cc(NC(=O)c3ncc(Cl)cc3Cl)ccc2F)N=C(N)C1=O (stereo not drawn) [Example 195, 3,5-Dichloro-pyridine-2-carboxylic acid {3-[6-amino-4-(2-methoxy-ethyl)-2-methyl-5-oxo-2,3,4,5-tetrahydro-pyrazin-2-yl]-4-fluoro-phenyl}-amide hydrochloride]
132 | CCN1CC(C)(c2cc(NC(=O)c3ccc(C#N)cn3)ccc2F)N=C(N)C1=O (stereo not drawn) [Example 199, 5-Cyano-pyridine-2-carboxylic acid [3-(6-amino-4-ethyl-2-methyl-5-oxo-2,3,4,5-tetrahydro-pyrazin-2-yl)-4-fluoro-phenyl]-amide hydrochloride]
66 | N#Cc1ccc(C(=O)Nc2ccc(F)c(C3(C(F)F)CNCC(N)=N3)c2)nc1 (stereo not drawn) [Example 202, 5-Cyano-pyridine-2-carboxylic acid [3-(6-amino-2-difluoromethyl-2,3,4,5-tetrahydro-pyrazin-2-yl)-4-fluoro-phenyl]-amide]
3 | Cc1cc(Br)cnc1C(=O)Nc1ccc(F)c(C2(C(F)F)CN(C(=O)OCC(Cl)Cl)CC(N)=N2)c1 (stereo not drawn) [Example 207, 5-Amino-3-{5-[(5-bromo-3-methyl-pyridine-2-carbonyl)-amino]-2-fluoro-phenyl}-3-difluoromethyl-3,6-dihydro-2H-pyrazine-1-carboxylic acid 2,2-dichloro-ethyl ester]
4 | COCC(=O)N1CC(N)=NC(c2cc(NC(=O)c3ncc(Br)cc3C)ccc2F)(C(F)F)C1 (stereo not drawn) [Example 208, 5-Bromo-3-methyl-pyridine-2-carboxylic acid {3-[6-amino-2-difluoromethyl-4-(2-methoxy-acetyl)-2,3,4,5-tetrahydro-pyrazin-2-yl]-4-fluoro-phenyl}-amide]
757 | NC1=N[C@@](c2cc(NC(=O)c3ncc(=O)[nH]c3N)ccc2F)(C(F)F)CNC1 [Example 214, 3-Amino-5-oxo-4,5-dihydro-pyrazine-2-carboxylic acid [3-((R)-6-amino-2-difluoromethyl-2,3,4,5-tetrahydro-pyrazin-2-yl)-4-fluoro-phenyl]-amide]
61 | N#Cc1cnc(C(=O)Nc2ccc(F)c([C@]3(C(F)F)COCC(N)=N3)c2)c(Cl)c1 [Example 216]
116 | NC1=N[C@@](c2cc(NC(=O)c3ncc(C(F)F)nc3N)ccc2F)(C(F)F)COC1 [Example 220]
65 | COc1cnc(C(=O)Nc2ccc(F)c([C@]3(C(F)F)COCC(N)=N3)c2)c(C)c1 [Example 221]
59 | [2H]C([2H])([2H])OCc1cc(F)cnc1C(=O)Nc1ccc(F)c([C@]2(C(F)F)COCC(N)=N2)c1 [Example 223]
